Paper PMC5839409, “Targeting intracellular B2 receptors using novel cell-penetrating antagonists to arrest growth and induce apoptosis in human triple-negative breast cancer” (Oncotarget, 2018)
Square brackets hold non-standard residues; d marks the D form. Peptide text beside a SMILES is read from it.

Key:
human B2R = target: T1, human B2R (Homo sapiens, UniProt P30411); assay: Radioligand competition binding on live adherent HEK-293T cells transiently transfected with hB2R; details: read-out: binding affinity; agonists, HEK-293T cells transfected with B2R
T1 construct: expressed in transfected cells; host or cells: HEK-293T
T1 sequence (P30411 1-391): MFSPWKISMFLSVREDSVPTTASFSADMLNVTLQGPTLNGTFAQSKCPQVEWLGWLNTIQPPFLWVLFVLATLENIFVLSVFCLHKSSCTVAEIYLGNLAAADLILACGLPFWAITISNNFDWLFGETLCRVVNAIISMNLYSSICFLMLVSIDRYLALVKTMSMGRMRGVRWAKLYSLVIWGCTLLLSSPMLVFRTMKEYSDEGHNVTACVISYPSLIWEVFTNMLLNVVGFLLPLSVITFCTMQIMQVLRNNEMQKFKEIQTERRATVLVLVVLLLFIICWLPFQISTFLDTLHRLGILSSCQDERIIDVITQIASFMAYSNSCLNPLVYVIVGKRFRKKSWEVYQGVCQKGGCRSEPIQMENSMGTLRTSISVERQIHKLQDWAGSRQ

[1] = target: T2, B2R endogenously expressed in the human de-endothelized umbilical veins (Homo sapiens, UniProt P30411); assay: Functional bioassay on isolated human de-endothelized umbilical veins (hUV); details: read-out: biological activity; agonists, isometric contraction of human vessels
T2 construct: B2R endogenously expressed in the human de-endothelized umbilical veins (hUV); from tissue; host or cells: human umbilical vein, de-endothelized
T2 sequence (P30411 1-391): T1 sequence (P30411 1-391)
Description: For testing the pharmacological activities of agonists, complete concentration-contractile response curves to agents were done at the B2R endogenously expressed in the human de-endothelized umbilical veins (hUV), as previously described. EC50 values (or potencies) of the agonists were calculated from the obtained concentration-response curves. […] The collection of umbilical cords for the bioassays was approved by the local ethical committee, and maternal consent was obtained in every case.

MDA-MB-231 cells = assay: Anchorage-dependent clonogenic assay; assay type: cell-based, human; details: 10-14 days
Description: MDA-MB-231 cells were plated at 200 cells/well in a six-well dish in 2 ml DMEM medium containing 10% FBS. […] After 10 to 14 days, colonies were fixed and stained with 0.5% methylene blue in 50% ethanol. Excess of staining solution was removed carefully with tap water and the plates were dried overnight. Colony counting and densitometric analyses (to measure total colony numbers and surface areas) were performed using the Image Pro Plus 5.1 software.

## N=C(N)NCCC[C@H](NC(=O)[C@H](Cc1ccccc1)NC(=O)[C@@H]1CCCN1C(=O)[C@H](CO)NC(=O)[C@H](Cc1ccccc1)NC(=O)CNC(=O)[C@@H]1CCCN1C(=O)[C@@H]1CCCN1C(=O)[C@H](CCCNC(=N)N)NC(=O)CNC(=O)CNC(=O)CNC(=O)[C@@H](CCCNC(=N)N)NC(=O)[C@@H](CCCNC(=N)N)NC(=O)[C@@H](CCCNC(=N)N)NC(=O)[C@@H](CCC(N)=O)NC(=O)[C@@H](CCCNC(=N)N)NC(=O)[C@@H](CCCNC(=N)N)NC(=O)[C@@H](CCCCN)NC(=O)[C@@H](CCCCN)NC(=O)[C@@H](CCCNC(=N)N)NC(=O)CN)C(=O)O [DTat-BK] (H-G[dR][dK][dK][dR][dR][dQ][dR][dR][dR]GGGRPPGFSPFR-OH; N-terminus and C-terminus assumed)
Human B2R
  IC50: 0.11 ± 0.004 µM
[1]
  EC50: 0.35 ± 0.001 µM
MDA-MB-231 cells
  colony number (agonist effect): did not increase colony number
  colony surface area (agonist effect): increase in colony surface area
